From patent US5393765A, “Pharmaceutical compositions with constant erosion volume for zero order controlled release” (Hoffmann-La Roche Inc., priority 1993, dated 1995)
Values after ≈ are worked out from the molar mass of the structure shown. Counter-ions that a name gives are not always drawn. Like-named read-outs stand apart in the source and are kept apart here.

Legend:
[1] = Solubility of the exemplary drugs in water at 25° C.; assay type: physicochemical
Method: Solubility of the exemplary drugs in water at 25° C. is as follows: […]

[2] = Drug release from the erodible matrix, USP dissolution test (Basket or Paddle Method); assay type: physicochemical; settings: in the given dissolution medium; FIGS. 2-7 and 9-15; FIG. 8 (chlorpheniramine maleate composition with the polymer, water, 37° C., Basket Method, 100 rpm)
Method: The evaluation of drug release from the erodible matrix was performed using the USP dissolution test procedure with either the Basket or Paddle Method at the speed as specified. […] Briefly, in both methods, one tablet is placed in the appropriate apparatus described below containing the specified amount of dissolution medium and the stirring element is started. The amount of drug in solution is determined by the UV spectrophotometric method as is known in the art. The assembly used in the Basket Method consists of the following: a covered vessel made of glass with nominal capacity 1000 mL; a motor; a metallic drive shaft; and a cylindrical basket. The vessel containing 900 mL of the specified dissolution medium (i.e., water, 1% nonionic surfactant Emulphor ON-870 in phosphate buffer, pH 7.5 or 3% sodium lauryl sulfate, pH 9.0) is partially immersed in a suitable water bath and equilibrated at 37°±0.5° C. A fitted cover may be used to retard evaporation. The shaft is positioned so that its axis is not more than 2 mm at any point from the vertical axis of the vessel and rotates smoothly and without significant wobble. A speed-regulating device is used that allows the shaft rotation speed to be selected and maintained at the specified rate. The recommended basket speed is 100 rpm. […] The drug analysis was determined by UV spectrophotometry.

[3] = in water at 25° C., read-out: Solubility

Work on COc1ccc([C@@H]2Sc3c(ccc4ccccc34)N(CCN(C)C)C(=O)[C@@H]2OC(C)=O)cc1 (single isomer, unassigned) [(+)-cis-3-(Acetyloxy)-2,3-dihydro-2-(4-methoxyphenyl)-5-[2-(dimethylamino)ethyl]naphtho[1,2-b]-1,4-thiazepin-4(5H)-one] yielded a solubility [1, 3] of 80000 µg/mL (≈ 172000 µM).

O=C(CCCCCCCCc1cccnc1)N1CCC(C=C(c2ccccc2)c2ccccc2)CC1 [4-(2,2-Diphenylethenyl)-1-[1-oxo-9-(3-pyridinyl)nonyl]piperidine] gave a solubility [1, 3] of 0.182 µg/mL (≈ 0.379 µM).

For Cc1nnc2n1-c1sc(C#CCn3c(=O)c4ccccc4c4ccccc43)cc1C(c1ccccc1Cl)=NC2 [5-[3-[4-(2-Chlorophenyl)-9-methyl-6H-thieno[3,2-f][1,2,4]triazolo[4,3-a][1,4]diazepin-2-yl]-2-propynyl]phenanthrydin-6(5H)-one], the solubility ([1]; water) was 0.01 µg/mL (≈ 0.0183 µM).

In the case of CNC1=Nc2ccc(Cl)cc2C(c2ccc[nH]2)=NC1 [7-Chloro-N-methyl-5-(1H-pyrrol-2-yl)-3H-1,4-benzodiazepin-2-amine], the solubility [1, 3] was 1.5 µg/mL (≈ 5.5 µM).

Work on CCC(CC)(CC(=O)Nc1cccc(/C=C/c2nc(C3CCC3)cs2)c1)C(=O)O [(E)-4-[[3-[2-(4-Cyclobutyl-2-thiazolyl)ethenyl]phenyl]amino]-2,2-diethyl-4-oxobutanoic acid] yielded a solubility [1, 3] of under 2 µg/mL.

For CN(C)CCC(c1ccc(Cl)cc1)c1ccccn1 (stereo not drawn) [chlorpheniramine maleate], the “Release profile (zero order)” value [2] was “does not produce a zero-order release profile”.
